Reference: patent publication US4634692A, “Synthesis of 1α,25-dihydroxy-24R-fluorocholecalciferol and 1α,25-dihydroxy-24S-fluorocholecalciferol” (Hoffmann-La Roche Inc., priority 1984, dated 1987)
Several values for one entry are separate records, joined by “and”; a condition that tells them apart may be missing. Identical values can stand only once. Entries after “also recorded” stand apart in the source; their conditions may differ. Like-named read-outs stand apart in the source and are kept apart here.

Experiments:
[1] = tested on: EHDP-Induced Mineralization Block; test: Prevention of EHDP-induced mineralization block in rats (tibial epiphyseal plate width); assay type: in vivo, rat (Charles River CD male); conditions: 10 days; for Mean tibial epiphyseal plate width: with EHDP
Experimental: Charles River CD male rats are treated for 10 consecutive days. Rats are 21 days of age at the start of treatment. Ethane-1-hydroxy-1,1-diphosphonate (EHDP) is given subcutaneously on each treatment day at a dose of 3 mg/0.2 ml/rat in distilled water. Test compounds are administered orally on each treatment day in propylene glycol (0.2 ml/rat). Rats are autopsied on the day after the last treatment day and tibias are processed by a modified von Kossa procedure based upon silver impregnation of bone salts. Epiphyseal plate widths are measured with a micrometer ocular using standard microscopic magnification (35×). Activity is based upon dose-dependent narrowing of the widened epiphyseal plate induced by EHDP. Ten rats are used in each treatment group. Positive (EHDP alone) and negative (vehicles alone) control groups of ten rats each are included in each experiment.

[2] = Pharmacokinetics in dogs, plasma half-life after intravenous administration; conditions: dog, in vivo, 0.0003 mg/kg
Experimental: The plasma level profiles of 1α,25-dihydroxy-24R-fluorocholecalciferol and 1α,25-dihydroxycholecalciferol are compared in the dog after a single intraveneous dose. Each compound is studied in four dogs with a two-week "washout" period between compounds. The compounds are administered intravenously as solutions (2.5 mg/ml) in propylene glycol at a dose level of 0.3 μg/kg. At selected time points 5 ml of heparinized blood are collected, placed in ice and centrifuged in the cold. Plasma is separated and frozen immediately.
Plasma concentrations are determined by procedures routinely employed for the measurements of circulating levels of 1α,25-dihydroxycholecalciferol.

[3] = tested on: intestinal calcium absorption; test: Intestinal calcium absorption in vitamin D-deficient chicks (serum 45Ca); assay type: in vivo, chick (Leghorn cockerels)
Experimental: While Leghorn one-day-old cockerels are placed on a vitamin D-deficient diet and are housed under ultraviolet-free lighting for 21 days. Chicks are then used to determine the effects of test compounds on intestinal calcium absorption. A single oral dose of test compound dissolved in propylene glycol is administered. At various times after dosing, 2 uCi of ^45 Ca (chloride) is given orally, and serum radioactivity is measured 45 minutes after administration of the isotope. Ten chicks are used in each treatment and control group and vehicle-treated controls are included at each time period.

[4] = tested on: vitamin D-deficient chicks; test: Anti-rachitogenic activity in chicks (tibia ash weight); assay type: in vivo, chick (White Leghorn cockerels); conditions: for Mean tibia ash weight ± S.E.: 21 days oral dosing, 9-10 chicks per group, vehicle 120.9 ± 8.3
Experimental: One-day-old White Leghorn cockerels are placed on a vitamin D-deficient diet which contains 1% calcium and 0.7% phosphorous and are housed under ultraviolet-free lighting (General Electric F40G0 gold fluorescent lights). Compounds are dissolved in propylene glycol and administered orally in a volume of 0.2 ml for 21 consecutive days to chicks which are one to two days of age at the start of treatment. Controls are treated with vehicle alone. Compounds are prepared in amber flasks and the solutions are flushed with argon and refrigerated after each dosing period. Chicks are autopsied on the day after the last treatment day. Blood is collected for determination of serum calcium and phosphorus and tibia dry weight and ash weight are determined. Usually, ten chicks are used for each treatment group and for the control group. The results of the 1α,25-dihydroxy-24R-fluorocholecalciferol anti-rachitogenic activity assay are shown in Table I along with comparative data showing the anti-rachiotogenic activity of 24,24-difluoro 1α,25-dihydroxycholecalciferol.

[5] = 2.5 picomoles/rat/day p.o., vehicles 447, EHDP alone 1502
[6] = 7.5 picomoles/rat/day p.o., vehicles 416, EHDP alone 1390
[7] = 25 picomoles/rat/day p.o., vehicles 435, EHDP alone 1684
[8] = 75 picomoles/rat/day p.o., vehicles 448, EHDP alone 1332
[9] = 250 picomoles/rat/day p.o., vehicles 428, EHDP alone 1385

| Structure (SMILES) | Mean tibial epiphyseal plate width, EHDP alone (positive control) ([1]; EHDP 3 mg/0.2 ml/rat s.c., control groups of the 2.5, 7.5, 25, 75, 250 pmol) | Mean tibial epiphyseal plate width [1, 5] [Micra] | Mean tibial epiphyseal plate width [1, 6] [Micra] | Mean tibial epiphyseal plate width [1, 7] [Micra] | Mean tibial epiphyseal plate width [1, 8] [Micra] | Mean tibial epiphyseal plate width [1, 9] [Micra] | half-life ([2]; 0.3 mcg/kg, i.v., dogs, read-out: Plasma half-life (converted)) [min] | Serum 45Ca ([3]; 24 hr after single oral dose, vehicle 408 ± 30, *** statistically significant) [CPM/0.2 ML] | Serum 45Ca ([3]; 48 hr after single oral dose, vehicle 439 ± 30, not statistically significant) [CPM/0.2 ML] | Serum 45Ca ([3]; 72 hr after single oral dose, vehicle 398 ± 31, not statistically significant) [CPM/0.2 ML] | Duration of activity in stimulation of intestinal calcium absorption versus 1α,25-dihydroxycholecalciferol (in words) ([3]; single oral 100 nanogram dose) | Prevention of EHDP-induced mineralization block (in words) ([1]; oral, rats) | Mean tibia ash weight ± S.E. ([4]; 3 ng/chick/day) [mg] | Mean tibia ash weight ± S.E. ([4]; 10 ng/chick/day) [mg] | Mean tibia ash weight ± S.E. ([4]; 30 ng/chick/day) [mg] | Anti-rachitogenic activity (in words) ([4]; oral, 21 consecutive days) | half-life [2] [min] |
| --- | --- | --- | --- | --- | --- | --- | --- | --- | --- | --- | --- | --- | --- | --- | --- | --- | --- |
| CC(O)(P(=O)(O)O)P(=O)(O)O [EHDP, Ethane-1-hydroxy-1,1-diphosphonate] | 1502 Micra and 1390 Micra and 1684 Micra and 1332 Micra and 1385 Micra |  |  |  |  |  |  |  |  |  |  |  |  |  |  |  |  |
| C=C1/C(=C\C=C2/CCC[C@]3(C)[C@@H]([C@H](C)CCCC(C)(C)O)CC[C@@H]23)C[C@@H](O)C[C@@H]1O [1α,25-dihydroxycholecalciferol] |  | 1365 | 1240 | 1103 | 922 | 839 | 216 |  |  |  |  |  |  |  |  |  |  |
| C=C1/C(=C\C=C2/CCC[C@]3(C)[C@@H]([C@H](C)CC[C@@H](F)C(C)(C)O)CC[C@@H]23)C[C@@H](O)C[C@@H]1O [[1α,3β,5Z,7E,24R]-24-fluoro-9,10-secocholesta-5,7,10(19)-trien-1,3,25-triol] |  | 1302 | 1031 | 1040 | 864 | 783 |  | 793 ± 73 | 520 ± 38 | 372 ± 39 | comparable to that of 1α,25-dihydroxycholecalciferol | has shown activity in the test for the prevention of EHDP-Induced Mineralization Block in rats; also recorded: narrows the widening of the epiphyseal plate induced by EHDP | 293.3 ± 4.8 | 330.4 ± 7.7 | 337.9 ± 10.6 | has shown activity in the anti-rachitogenic test in chicks; also recorded: possesses potent anti-rachitogenic activity | 864 |
| C=C1/C(=C\C=C2/CCC[C@]3(C)[C@@H]([C@H](C)CCC(F)(F)C(C)(C)O)CC[C@@H]23)C[C@@H](O)C[C@@H]1O [24,24-difluoro 1α,25-dihydroxycholecalciferol, reference compound] |  |  |  |  |  |  |  |  |  |  |  |  | 192.2 ± 6.2 | 258.6 ± 10.0 | 229.8 ± 14.2 |  |  |
